Measured values published in publication PMC9782245, “Synthesis and Structural Optimization of 2,7,9-Trisubstituted purin-8-ones as FLT3-ITD Inhibitors” (International Journal of Molecular Sciences, 2022).
pIC50: −log10 of the molar value. “And” between values parts separate entries of the source, which are not always exact repeats. Equal entries are not always repeated.

Columns and labels:
[1] = test system: K562 cells; test: Resazurin-based viability assay, K562; format: cell-based; conditions: Homo sapiens, 72 h, at least duplicate experiments
From the text: (§1) In parallel to kinase assays, we measured the effect of compounds on the viability of cancer cell lines MV4-11 and K562 using a resazurin-based assay. MV4-11 is an AML cell line dependent on a constitutively activated FLT3-ITD kinase with high sensitivity to FLT3 inhibition, K562 cells (chronic myelogenous leukemia) are independent on FLT3.
(§2) Human cell lines were obtained from the European Collection of Authenticated Cell Cultures (K562) and Cell lines service (MV4-11) and were cultivated according to the provider’s instructions. Briefly, cells were maintained in RPMI-1640 (MV4-11) or DMEM (K562) supplemented with 10% fetal bovine serum, penicillin (100 U/mL), and streptomycin (0.1 mg/mL) at 37 °C in 5% CO2. For the viability assays, cells were treated in triplicate with six different doses of each compound for 72 h. After treatments, the resazurin (Sigma Aldrich, St. Louis, MO, USA) solution was added for 4 h, and the fluorescence of resorufin corresponding to live cells was measured at 544/590 nm (excitation/emission) using a Fluoroskan Ascent microplate reader (Labsystems). The GI50 value, the drug concentration lethal to 50% of the cells, was calculated from the dose-response curves that resulted from the assays.

[2] = molecular target: CDK2/E (Homo sapiens, UniProt P24941); test: Kinase inhibition assay CDK2/E; format: biochemical; conditions: at least duplicate experiments; read-out: IC50 CDK2/E
Experimental: (§3) Newly prepared compounds 12–15 were assayed for inhibition of FLT3-ITD kinase as well as CDK4 and CDK2, known off-targets of structurally related compounds. We observed that CDK4 was sensitive to nearly all compounds with IC50 values in mid-nanomolar values.
(§4) CDK/cyclin complexes and FLT3 kinases were assayed as previously described. Protein kinase selectivity was evaluated at a single concentration (1 µM) by screening against 30 enzymes at Eurofins Discovery (France).

[3] = test system: K562 cells; test: Flow cytometric cell cycle analysis, K562; format: cell-based, Human; conditions: 24 h; for effect on cell cycle (G1 arrest) in K562: 200 nM
Experimental: (§5) FLT3 inhibition causes G1-cell cycle arrest in FLT3-dependent cell lines such as MV4-11; we, therefore, performed flow cytometric analysis to evaluate cell cycle changes in MV4-11 and K562 cell lines treated with 200 nM compounds for 24 h. […] Specifically, 18 compounds arrested >85% of cells in the G1 phase, which is >30% cells in the G1 phase of the cell cycle than in control cells (Figure 4A).
(§6) Finally, we performed flow cytometric analysis with different concentrations of 15a in MV4-11 and MOLM13 (another FLT-ITD positive cell line) and K562 cell lines treated for 24 h (Figure 5).
(§7) Asynchronously growing cells were seeded into a 96-well plate and, after a preincubation period, treated with tested compounds for 24 h. The treated cells were stained directly (or after trypsinization for the adherent cells) with the 5× staining solution (17 mM trisodium citrate dihydrate, 0.5% IGEPAL CA-630, 7.5 mM spermine tetrahydrochloride, and 2.5 mM Tris; pH 7.6 containing […] propidium iodide). After the staining, DNA content was analyzed using flow cytometry using a 488 nm laser (BD FACS Verse with software BD FACSuite^TM, version 1.0.6). Cell cycle distribution was analyzed using ModFit LT (Verity Software House, version 5.0). Palbociclib, trilaciclib, and quizartinib were purchased from MedChemExpress, Monmouth Junction, NJ, USA.

[4] = molecular target: CDK4/D1 (Homo sapiens, UniProt P11802); test: Kinase inhibition assay CDK4/D1; format: biochemical; conditions: at least duplicate experiments; read-out: IC50 CDK4/D1
Experimental: as §3, §4

[5] = test system: MV4-11 cells; test: Resazurin-based viability assay, MV4-11; format: cell-based, Human; conditions: Homo sapiens, MV4-11; 72 h, resazurin; at least duplicate experiments
From the text: as §1, §2

[6] = molecular target: T1, FLT3-ITD (Homo sapiens, UniProt P36888, ITD); test: Kinase inhibition assay FLT3-ITD; format: biochemical; conditions: at least duplicate experiments; read-out: IC50 FLT3-ITD
T1 sequence (P36888 27-993): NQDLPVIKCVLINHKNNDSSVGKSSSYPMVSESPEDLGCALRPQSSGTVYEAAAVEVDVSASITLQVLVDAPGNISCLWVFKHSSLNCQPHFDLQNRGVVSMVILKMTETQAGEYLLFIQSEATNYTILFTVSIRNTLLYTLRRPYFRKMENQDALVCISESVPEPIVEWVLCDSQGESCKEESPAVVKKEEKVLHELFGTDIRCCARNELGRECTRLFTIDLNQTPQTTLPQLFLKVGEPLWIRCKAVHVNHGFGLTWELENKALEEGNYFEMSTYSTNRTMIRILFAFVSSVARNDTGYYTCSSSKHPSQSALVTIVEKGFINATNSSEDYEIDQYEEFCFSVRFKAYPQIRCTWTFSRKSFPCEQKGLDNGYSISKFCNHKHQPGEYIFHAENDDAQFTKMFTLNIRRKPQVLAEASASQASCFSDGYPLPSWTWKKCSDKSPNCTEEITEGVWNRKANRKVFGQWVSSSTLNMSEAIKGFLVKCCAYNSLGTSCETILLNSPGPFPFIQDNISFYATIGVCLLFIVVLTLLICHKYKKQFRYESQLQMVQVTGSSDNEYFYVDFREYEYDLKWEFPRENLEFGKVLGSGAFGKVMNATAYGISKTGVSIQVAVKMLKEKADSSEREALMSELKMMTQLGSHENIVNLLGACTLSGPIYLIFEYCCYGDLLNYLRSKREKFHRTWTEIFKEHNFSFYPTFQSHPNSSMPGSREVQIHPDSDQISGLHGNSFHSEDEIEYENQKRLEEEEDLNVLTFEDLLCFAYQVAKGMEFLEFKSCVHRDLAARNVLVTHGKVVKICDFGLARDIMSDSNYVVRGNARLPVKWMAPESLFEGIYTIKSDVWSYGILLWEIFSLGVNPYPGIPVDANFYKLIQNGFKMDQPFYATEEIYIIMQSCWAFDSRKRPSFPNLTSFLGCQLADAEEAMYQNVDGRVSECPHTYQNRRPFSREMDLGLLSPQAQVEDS
Experimental: as §3, §4

[7] = test system: MV4-11 cells; test: Flow cytometric cell cycle analysis, MV4-11; format: cell-based, Human; conditions: 24 h; for effect on cell cycle (G1 arrest) in MV4-11: 200 nM
Experimental: as §5, §6, §7

[8] = test system: MOLM13 cells; test: Flow cytometric cell cycle analysis, MOLM13; format: cell-based; conditions: increasing doses, 24 h
Experimental: as §6
as §7, with “5.0).” for “5.0). Palbociclib, trilaciclib, and quizartinib were purchased from MedChemExpress, Monmouth Junction, NJ, USA.”

[9] = test system: oncogenic variants of FLT3; design: method as in PMID 28418845; conditions: cited from earlier work

CDK4/D1, sequence (P11802 whole entry): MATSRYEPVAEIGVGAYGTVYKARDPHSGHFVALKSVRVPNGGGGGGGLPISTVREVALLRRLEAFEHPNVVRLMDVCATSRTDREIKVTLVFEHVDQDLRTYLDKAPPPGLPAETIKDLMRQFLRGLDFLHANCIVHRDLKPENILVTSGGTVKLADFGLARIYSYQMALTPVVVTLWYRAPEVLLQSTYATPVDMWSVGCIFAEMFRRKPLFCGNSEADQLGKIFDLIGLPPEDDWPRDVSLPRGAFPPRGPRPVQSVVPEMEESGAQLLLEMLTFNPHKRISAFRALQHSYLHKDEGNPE
CDK4/D1, sequence (P24385 whole entry partner): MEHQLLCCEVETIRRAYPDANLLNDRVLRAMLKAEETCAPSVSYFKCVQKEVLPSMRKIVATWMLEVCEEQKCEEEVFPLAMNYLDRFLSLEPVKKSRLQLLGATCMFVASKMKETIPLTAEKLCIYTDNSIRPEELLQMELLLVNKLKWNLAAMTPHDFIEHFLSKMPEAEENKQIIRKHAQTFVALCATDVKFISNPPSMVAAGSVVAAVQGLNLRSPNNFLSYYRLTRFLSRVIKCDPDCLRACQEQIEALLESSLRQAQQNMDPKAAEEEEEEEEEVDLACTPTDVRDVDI

Row | Compound | GI50 [1] [nM] | pIC50 [2] | effect on cell cycle (G1 arrest) in K562 [3] | pIC50 [4] | GI50 [5] [nM] | melting point [°C] | pIC50 [6] | effect on cell cycle (G1 arrest) in MV4-11 [7] | cell cycle changes in K562 ([3]; different concentrations) | cells in the G1 phase, MOLM13 [8] | cells in the G1 phase, MV4-11 ([7]; increasing doses) | affinity to oncogenic variants of FLT3 [9]
1 | CC1CCC(n2c(C(F)(F)F)nc3cnc(Nc4ccc(N5CCNCC5)cc4)nc32)CC1 (stereo not shown) [12c] | 8210 | 6.64 | moderate G1 block | 7.92 | 440 | 228 to 230 | 7.07 |  |  |  |  | 
2 | Cn1c(=O)n(C2CCCCCCCCCCC2)c2nc(Nc3ccc(N4CCNCC4)cc3)ncc21 [14j] | 3590 | < 6.00 and 5.99 |  | 6.47 | 1810 |  | 7.12 | did not significantly affect the cell cycle |  |  |  | 
3 | CC(C)(C)c1cc(NC(=O)Nc2ccc(-c3cn4c(n3)sc3cc(OCCN5CCOCC5)ccc34)cc2)no1 [quizartinib, reference compound] |  |  | arrested selectively only MV4-11 |  |  |  |  | arrested selectively only MV4-11 | did not show any changes | up to 90% | up to 90% | 
4 | Cc1ccccc1-n1c(=O)n(C)c2cnc(Nc3ccc(N4CCNCC4)cc3)nc21 [14n] | 16700 | 6.27 |  | 5.73 | 1250 | 152 to 154 | 5.53 | did not significantly affect the cell cycle |  |  |  | 
5 | CN1CCN(c2ccc(Nc3ncc4cc5n(c4n3)C3(CCCCC3)CNC5=O)nc2)CC1 [trilaciclib] |  |  |  |  |  |  |  |  |  |  |  | low nanomolar affinity
6 | CC(=O)c1c(C)c2cnc(Nc3ccc(N4CCNCC4)cn3)nc2n(C2CCCC2)c1=O [palbociclib, reference compound] |  |  | significantly arrest both cell lines in the G1 phase |  |  |  |  | significantly arrest both cell lines in the G1 phase |  |  |  | 
7 | Cn1c(=O)[nH]c2nc(Nc3ccc(N4CCNCC4)cc3)ncc21 [14a] | > 100000 | < 4.70 |  | < 4.70 | 5650 |  | 5.16 | did not significantly affect the cell cycle |  |  |  | 
